# Reference: ChEMBL document CHEMBL1201862, “PubChem BioAssay data set” (2004)
#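 All cell lines were grown in 96-well plates and treated with compound for 48 hours. GI50 marks 50% less growth.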 Calls of active or inactive are those of the source. Cut-off read from the data, not from the text of the source: active = GI50 up to about 1.1 µM and inactive = higher.
# Legend:
# Experiment in all cases: NCI tumour cell line growth inhibition, 48 h
# MOLT-4 = system: MOLT-4
# K562 = system: K562
# SF-539 = system: SF-539
# LXFL 529 = system: LXFL 529
# RPMI-8226 = system: RPMI-8226
# OVCAR-3 = system: OVCAR-3
# HOP-92 = system: HOP-92
# SNB-75 = system: SNB-75
# SNB-19 = system: SNB-19
# SN12C = system: SN12C
# SR = system: SR
# CAKI-1 = system: CAKI-1
# EKVX = system: EKVX
# NCI-H226 = system: NCI-H226
# LOX IMVI = system: LOX IMVI
# IGROV-1 = system: IGROV-1
# TK-10 = system: TK-10
# OVCAR-8 = system: OVCAR-8
# XF498 = system: XF498
# HOP-18 = system: HOP-18
# SF-268 = system: SF-268
# M19-MEL = system: M19-MEL
# HT-29 = system: HT-29
# CCRF-CEM = system: CCRF-CEM
# OVCAR-4 = system: OVCAR-4
# NCI-H460 = system: NCI-H460
# RXF 393 = system: RXF 393
# DLD-1 = system: DLD-1
# HOP-62 = system: HOP-62
# HCT-116 = system: HCT-116
# DMS-114 = system: DMS-114
# KM12 = system: KM12
# HL-60 = system: HL-60
# UACC-62 = system: UACC-62
# ACHN = system: ACHN
# SW-620 = system: SW-620
# Malme-3M = system: Malme-3M
# SK-MEL-28 = system: SK-MEL-28
# SK-MEL-5 = system: SK-MEL-5
# HCT-15 = system: HCT-15
# SK-OV-3 = system: SK-OV-3
# UO-31 = system: UO-31
# NCI-H522 = system: NCI-H522
# COLO 205 = system: COLO 205
# OVCAR-5 = system: OVCAR-5
# A549 = system: A549
# SF-295 = system: SF-295
# M14 = system: M14
# A498 = system: A498
# U-251 = system: U-251
# KM-20L2 = system: KM-20L2
# 786-0 = system: 786-0
# SNB-78 = system: SNB-78
# NCI-H23 = system: NCI-H23
# SK-MEL-2 = system: SK-MEL-2
# DMS-273 = system: DMS-273
# NCI/ADR-RES = system: NCI/ADR-RES
# UACC-257 = system: UACC-257
# HCC 2998 = system: HCC 2998
# MCF7 = system: MCF7
smiles,measurement,setting,value
O=C(Nc1c(C(=O)NC2CCCCC2)[nH]c(=O)[nH]c1=O)c1ccc(Cl)cc1,GI50,MOLT-4,> 100 µM (inactive)
same,GI50,K562,> 100 µM (inactive)
same,GI50,SF-539,> 100 µM (inactive)
same,GI50,LXFL 529,> 100 µM (inactive)
same,GI50,RPMI-8226,> 100 µM (inactive)
same,GI50,OVCAR-3,> 100 µM (inactive)
same,GI50,HOP-92,> 100 µM (inactive)
same,GI50,SNB-75,22 µM (inactive)
same,GI50,SNB-19,< 0.01 µM (active)
same,GI50,SN12C,> 100 µM (inactive)
same,GI50,SR,> 100 µM (inactive)
same,GI50,CAKI-1,> 100 µM (inactive)
same,GI50,EKVX,> 100 µM (inactive)
same,GI50,NCI-H226,> 100 µM (inactive)
same,GI50,LOX IMVI,> 100 µM (inactive)
same,GI50,IGROV-1,> 100 µM (inactive)
same,GI50,TK-10,> 100 µM (inactive)
same,GI50,OVCAR-8,> 100 µM (inactive)
same,GI50,XF498,> 100 µM (inactive)
same,GI50,HOP-18,> 100 µM (inactive)
same,GI50,SF-268,> 100 µM (inactive)
same,GI50,M19-MEL,> 100 µM (inactive)
same,GI50,HT-29,> 100 µM (inactive)
same,GI50,CCRF-CEM,> 100 µM (inactive)
same,GI50,OVCAR-4,> 100 µM (inactive)
same,GI50,NCI-H460,> 100 µM (inactive)
same,GI50,RXF 393,79.6 µM (inactive)
same,GI50,DLD-1,> 100 µM (inactive)
same,GI50,HOP-62,> 100 µM (inactive)
same,GI50,HCT-116,> 100 µM (inactive)
same,GI50,DMS-114,> 100 µM (inactive)
same,GI50,KM12,49.3 µM (inactive)
same,GI50,HL-60,> 100 µM (inactive)
same,GI50,UACC-62,> 100 µM (inactive)
same,GI50,ACHN,> 100 µM (inactive)
same,GI50,SW-620,> 100 µM (inactive)
same,GI50,Malme-3M,> 100 µM (inactive)
same,GI50,SK-MEL-28,> 100 µM (inactive)
same,GI50,SK-MEL-5,> 100 µM (inactive)
same,GI50,HCT-15,> 100 µM
same,GI50,SK-OV-3,> 100 µM (inactive)
same,GI50,UO-31,> 100 µM (inactive)
same,GI50,NCI-H522,44.3 µM (inactive)
same,GI50,COLO 205,> 100 µM (inactive)
same,GI50,OVCAR-5,> 100 µM (inactive)
same,GI50,A549,> 100 µM (inactive)
same,GI50,SF-295,> 100 µM (inactive)
same,GI50,M14,> 100 µM (inactive)
CCC(=O)CC(=O)CCC(=O)Nc1cc(C)ccc1C,GI50,MOLT-4,> 100 µM (inactive)
same,GI50,K562,> 100 µM (inactive)
same,GI50,SF-539,> 100 µM (inactive)
same,GI50,LXFL 529,> 100 µM (inactive)
same,GI50,RPMI-8226,> 100 µM (inactive)
same,GI50,A498,> 100 µM (inactive)
same,GI50,OVCAR-3,> 100 µM (inactive)
same,GI50,HOP-92,> 100 µM (inactive)
same,GI50,SNB-75,> 100 µM (inactive)
same,GI50,SNB-19,> 100 µM (inactive)
same,GI50,SN12C,> 100 µM (inactive)
same,GI50,SR,> 100 µM (inactive)
same,GI50,U-251,> 100 µM (inactive)
same,GI50,EKVX,> 100 µM (inactive)
same,GI50,LOX IMVI,> 100 µM (inactive)
same,GI50,IGROV-1,> 100 µM (inactive)
same,GI50,TK-10,> 100 µM (inactive)
same,GI50,OVCAR-8,> 100 µM (inactive)
same,GI50,XF498,> 100 µM (inactive)
same,GI50,HOP-18,> 100 µM (inactive)
same,GI50,SF-268,> 100 µM (inactive)
same,GI50,HT-29,> 100 µM (inactive)
same,GI50,CCRF-CEM,> 100 µM (inactive)
same,GI50,KM-20L2,> 100 µM (inactive)
same,GI50,NCI-H460,> 100 µM (inactive)
same,GI50,RXF 393,> 100 µM (inactive)
same,GI50,DLD-1,> 100 µM (inactive)
same,GI50,786-0,> 100 µM (inactive)
same,GI50,HCT-116,> 100 µM (inactive)
same,GI50,KM12,> 100 µM (inactive)
same,GI50,SNB-78,> 100 µM (inactive)
same,GI50,HL-60,> 100 µM (inactive)
same,GI50,UACC-62,> 100 µM (inactive)
same,GI50,ACHN,> 100 µM (inactive)
same,GI50,SW-620,> 100 µM (inactive)
same,GI50,Malme-3M,> 100 µM (inactive)
same,GI50,SK-MEL-28,> 100 µM (inactive)
same,GI50,SK-MEL-5,> 100 µM (inactive)
same,GI50,HCT-15,> 100 µM
same,GI50,SK-OV-3,> 100 µM (inactive)
same,GI50,UO-31,> 100 µM (inactive)
same,GI50,NCI-H522,> 100 µM (inactive)
same,GI50,A549,> 100 µM (inactive)
same,GI50,SF-295,> 100 µM (inactive)
same,GI50,NCI-H23,> 100 µM (inactive)
same,GI50,M14,> 100 µM (inactive)
same,GI50,SK-MEL-2,> 100 µM (inactive)
Cc1cc(-c2ccc(/N=N/c3ccc4c(S(=O)(=O)O)cc(S(=O)(=O)O)c(N)c4c3O)c(C)c2)ccc1/N=N/c1ccc2c(S(=O)(=O)O)cc(S(=O)(=O)O)c(N)c2c1O [EVANS BLUE FREE ACID],GI50,K562,> 100 µM (inactive)
same,GI50,SF-539,> 100 µM (inactive)
same,GI50,A498,> 100 µM (inactive)
same,GI50,OVCAR-3,> 100 µM (inactive)
same,GI50,SNB-75,77.3 µM (inactive)
same,GI50,SN12C,> 100 µM (inactive)
same,GI50,U-251,> 100 µM (inactive)
same,GI50,EKVX,> 100 µM (inactive)
same,GI50,DMS-273,> 100 µM (inactive)
same,GI50,NCI-H226,> 76.2 µM (inactive)
same,GI50,OVCAR-8,> 100 µM (inactive)
same,GI50,XF498,> 77.3 µM (inactive)
same,GI50,SF-268,> 100 µM (inactive)
same,GI50,M19-MEL,> 100 µM (inactive)
same,GI50,NCI/ADR-RES,> 100 µM (inactive)
same,GI50,HT-29,> 100 µM (inactive)
same,GI50,OVCAR-4,59.2 µM (inactive)
same,GI50,KM-20L2,> 100 µM (inactive)
same,GI50,NCI-H460,> 100 µM (inactive)
same,GI50,RXF 393,> 95.5 µM (inactive)
same,GI50,UACC-257,> 100 µM (inactive)
same,GI50,HCC 2998,> 100 µM (inactive)
same,GI50,SNB-78,> 85.7 µM (inactive)
same,GI50,HL-60,> 100 µM (inactive)
same,GI50,SW-620,> 100 µM (inactive)
same,GI50,SK-MEL-28,> 100 µM (inactive)
same,GI50,MCF7,> 100 µM (inactive)
same,GI50,HCT-15,> 100 µM
same,GI50,SK-OV-3,> 100 µM (inactive)
same,GI50,UO-31,62.7 µM (inactive)
same,GI50,NCI-H522,> 100 µM (inactive)
same,GI50,OVCAR-5,> 100 µM (inactive)
same,GI50,A549,> 100 µM (inactive)
same,GI50,SF-295,> 100 µM (inactive)
same,GI50,NCI-H23,> 100 µM (inactive)
same,GI50,SK-MEL-2,> 100 µM (inactive)
